In ChEMBL document CHEMBL1132501, “Synthesis and anti-Helicobacter pylori activity of FR182024, a new cephem derivative” (1999):
In brackets after ≈: the same amount, converted by molar mass.

Tests used:
Assay type in all cases: functional
[1] = tested on: Helicobacter pylori; experiment: The compound was evaluated in vitro for the minimum inhibitory concentration against Helicobacter pylori (9005).
[2] = tested on: Mus musculus; experiment: The compound was evaluated in vivo for the therapeutic efficacy at 0.32 mg/kg in mouse infection model; 8/8
[3] = tested on: Helicobacter pylori; experiment: The compound was evaluated in vitro for the minimum inhibitory concentration against Helicobacter pylori (FP1757).
[4] = tested on: Mus musculus; experiment: The compound was evaluated in vivo for the therapeutic efficacy at 0.1 mg/kg in mouse infection model; 5/8
[5] = tested on: Helicobacter pylori; experiment: The compound was evaluated in vitro for the minimum inhibitory concentration against Helicobacter pylori (16021).
[6] = tested on: Helicobacter pylori; experiment: The compound was evaluated in vitro for the minimum inhibitory concentration against Helicobacter pylori (13001).
[7] = tested on: Mus musculus; experiment: The compound was evaluated in vivo for the therapeutic efficacy at 0.1 mg/kg in mouse infection model; 0/8
[8] = tested on: Mus musculus; experiment: The compound was evaluated in vivo for the therapeutic efficacy at 3.2 mg/kg in mouse infection model; 7/8
[9] = tested on: Mus musculus; experiment: The compound was evaluated in vivo for the therapeutic efficacy at 1.0 mg/kg in mouse infection model; 3/8
[10] = tested on: Mus musculus; experiment: The compound was evaluated in vivo for the therapeutic efficacy at 0.32 mg/kg in mouse infection model; 1/8
[11] = tested on: Mus musculus; experiment: The compound was evaluated in vivo for the therapeutic efficacy at 0.32 mg/kg in mouse infection model; 0/8
[12] = tested on: Mus musculus; experiment: The compound was evaluated in vivo for the therapeutic efficacy at 3.2 mg/kg in mouse infection model; 0/8
[13] = tested on: Mus musculus; experiment: The compound was evaluated in vivo for the therapeutic efficacy at 1.0 mg/kg in mouse infection model; 0/8

Structure (SMILES): Cc1nnc(SC2=C(C(=O)O)N3C(=O)[C@@H](NC(=O)Cc4ccccc4)[C@H]3SC2)s1
- MIC [1]: 0.00625 µg/mL (≈ 0.0139 µM)
- Therapeutic efficacy [2]: 8
- MIC [3]: 0.00156 µg/mL (≈ 0.00348 µM)
- Therapeutic efficacy [4]: 5
- MIC [5]: 0.0016 µg/mL (≈ 0.00357 µM)
- MIC [6]: 0.00078 µg/mL (≈ 0.00174 µM)

Structure (SMILES): CC1(C)S[C@@H]2[C@H](NC(=O)[C@H](N)c3ccc(O)cc3)C(=O)N2C1C(=O)O (single isomer, unassigned) [AMOXICILLIN]
- MIC [1]: 0.05 µg/mL (≈ 0.137 µM)
- Therapeutic efficacy [7]: 0
- Therapeutic efficacy [8]: 7
- Therapeutic efficacy [9]: 3
- MIC [3]: 0.0125 µg/mL (≈ 0.0342 µM)
- Therapeutic efficacy [10]: 1
- MIC [5]: 0.025 µg/mL (≈ 0.0684 µM)
- MIC [6]: 0.025 µg/mL (≈ 0.0684 µM)

Structure (SMILES): CC[C@H]1OC(=O)[C@H](C)[C@@H](O[C@H]2C[C@@](C)(OC)[C@@H](O)[C@H](C)O2)[C@H](C)[C@@H](O[C@@H]2O[C@H](C)C[C@H](N(C)C)[C@H]2O)[C@](C)(OC)C[C@@H](C)C(=O)[C@H](C)[C@@H](O)[C@]1(C)O [CLARITHROMYCIN]
- MIC [1]: 0.2 µg/mL (≈ 0.267 µM)
- Therapeutic efficacy [11]: 0
- MIC [3]: 0.1 µg/mL (≈ 0.134 µM)
- MIC [5]: 50 µg/mL (≈ 66.8 µM)
- Therapeutic efficacy [12]: 0
- Therapeutic efficacy [13]: 0
- MIC [6]: 0.05 µg/mL (≈ 0.0668 µM)
